Results reported in patent US20100190794A1, “Herbicidally Active Composition” (BASF SE, priority 2007, published 2010).

How the values were obtained:
Assay in all cases: greenhouse test, pre-emergence treatment
BRAPL = assay type: in vivo, Brachiaria plantaginea; conditions: for Herbicidal action in % after 21 days against BRAPL: Use Example 8
Source text: (§1) The culture containers used were plastic pots containing loamy sand with approximately 3.0% of humus as substrate. The seeds of the test plants were sown separately for each species.
(§2) For the pre-emergence treatment, the active compounds, suspended or emulsified in water, were applied directly after sowing by means of finely distributing nozzles. The containers were irrigated gently to promote germination and growth and subsequently covered with transparent plastic hoods until the plants had rooted. This cover caused uniform germination of the test plants unless this was adversely affected by the active compounds.
(§3) Depending on the species, the plants were kept at 10-25° C. and 20-35° C., respectively. The test period extended over 2 to 4 weeks. During this time, the plants were tended and their response to the individual treatments was evaluated.
(§4) Evaluation was carried out using a scale from 0 to 100. 100 means no emergence of the plants, or complete destruction of at least the above-ground parts, and 0 means no damage or normal course of growth. Good herbicidal activity is given at values of at least 70, and very good herbicidal activity is given at values of at least 85.
(§5) The respective stated components A and B, and if appropriate, C were formulated as a 5% by weight or 10% by weight strength emulsion concentrate or a commercially available formulation of component B was used and, with addition of the amount of solvent system, introduced into the spray liquor used for applying the active compound. In the examples, the solvent used was water.
(§6) The test period extended over 20 or 21 days. During this time, the plants were tended, and their reactions to the treatment with active compound was monitored.
(§7) What was evaluated was the damage by the chemical compositions using a scale of from 0 to 100%, in comparison to the untreated control plants. 0 means no damage, and 100 means complete destruction of the plants.
(§8) In the examples below, using the method of S. R. Colby (1967) “Calculating synergistic and antagonistic responses of herbicide combinations”, Weeds 15, p. 22 ff., the value E, which is expected if the activity of the individual active compounds is only additive, was calculated.
(§9) where X=percent activity using active compound A at an application rate a; Y=percent activity using active compound B at an application rate b; E=expected activity (in %) by A+B at application rates a+b.
(§10) If the value found in experiments is higher than the value E calculated according to Colby, a synergistic effect is present.

DIGSA = assay type: in vivo, Digitaria sanguinalis
Source text: as §1, §2, §3, §4, §5, §6, §7, §8, §9, §10

LAMPU = assay type: in vivo, Lamium purpureum
Source text: as §1, §2, §3, §4, §5, §6, §7, §8, §9, §10

SOLNI = assay type: in vivo, Solanum nigrum L.
Source text: as §1, §2, §3, §4, §5, §6, §7, §8, §9, §10

ALOMY = assay type: in vivo, Alopecurus myosuroides
Source text: as §1, §2, §3, §4, §5, §6, §7, §8, §9, §10

SETFA = assay type: in vivo, Setaria faberi
Source text: as §1, §2, §3, §4, §5, §6, §7, §8, §9, §10

APESV = assay type: in vivo, Apera spica-venti
Source text: as §1, §2, §3, §4, §5, §6, §7, §8, §9, §10

LOLMU = assay type: in vivo, Lolium multiflorum; conditions: Use Example 21
Source text: as §1, §2, §3, §4, §5, §6, §7, §8, §9, §10

PHACA = assay type: in vivo, Phalaris canariensis; conditions: Use Example 20
Source text: as §1, §2, §3, §4, §5, §6, §7, §8, §9, §10

ECHCG = assay type: in vivo, Echinochloa crus-galli
Source text: as §1, §2, §3, §4, §5, §6, §7, §8, §9, §10

MATIN = assay type: in vivo, Matricaria inodora; conditions: 1000 g/ha a.s., Use Example 2
Source text: as §1, §2, §3, §4, §5, §6, §7, §8, §9, §10

STEME = assay type: in vivo, Stellaria media; conditions: 1000 g/ha a.s., Use Example 2
Source text: as §1, §2, §3, §4, §5, §6, §7, §8, §9, §10

CC1(C)CON(Cc2ccccc2Cl)C1=O [Clomazon, Clomazone]
Herbicidal action in % after 21 days against BRAPL (BRAPL; 50 g/ha a.s.): 65% | Herbicidal action in % after 21 days against BRAPL (BRAPL; 100 g/ha a.s.): 85%

CN1C(=O)C(Cc2ccccc2)N(C)C(=O)C1=Cc1ccccc1C#N (racemic) [Compound I-1 (Z) (Racemate), 2-[5-benzyl-1,4-dimethyl-3,6-dioxopiperazin-2-ylidenemethyl]benzonitrile]
Herbicidal action in % after 20 days against DIGSA (DIGSA; 125 g/ha a.s., Use Example 22): 40% | Herbicidal action in % after 20 days against DIGSA (DIGSA; 125 g/ha a.s., Use Example 23): 40% | Herbicidal action in % after 20 days against DIGSA (DIGSA; 250 g/ha a.s., Use Example 19): 65% | Herbicidal action in % after 20 days against DIGSA (DIGSA; 250 g/ha a.s., Use Example 22): 65% | Herbicidal action in % after 20 days against DIGSA (DIGSA; 250 g/ha a.s., Use Example 23): 65% | Herbicidal action in % after 20 days against LAMPU (LAMPU; 63 g/ha a.s., Use Example 21): 0% | Herbicidal action in % after 20 days against LAMPU (LAMPU; 125 g/ha a.s., Use Example 20): 30% | Herbicidal action in % after 20 days against LAMPU (LAMPU; 125 g/ha a.s., Use Example 21): 30% | Herbicidal action in % after 20 days against LAMPU (LAMPU; 250 g/ha a.s., Use Example 20): 80% | Herbicidal action in % after 20 days against SOLNI (SOLNI; 125 g/ha a.s., Use Example 22): 40% | Herbicidal action in % after 20 days against SOLNI (SOLNI; 125 g/ha a.s., Use Example 23): 40% | Herbicidal action in % after 20 days against SOLNI (SOLNI; 250 g/ha a.s., Use Example 19): 65% | Herbicidal action in % after 20 days against SOLNI (SOLNI; 250 g/ha a.s., Use Example 22): 65% | Herbicidal action in % after 20 days against SOLNI (SOLNI; 250 g/ha a.s., Use Example 23): 65% | Herbicidal action in % after 20 days against ALOMY (ALOMY; 63 g/ha a.s., Use Example 21): 30% | Herbicidal action in % after 20 days against ALOMY (ALOMY; 125 g/ha a.s., Use Example 21): 75% | Herbicidal action in % after 20 days against BRAPL (BRAPL; 125 g/ha a.s., Use Example 23): 40% | Herbicidal action in % after 20 days against BRAPL (BRAPL; 250 g/ha a.s., Use Example 19): 75% | Herbicidal action in % after 20 days against BRAPL (BRAPL; 250 g/ha a.s., Use Example 23): 75% | Herbicidal action in % after 20 days against SETFA (SETFA; 125 g/ha a.s., Use Example 22): 75% | Herbicidal action in % after 20 days against SETFA (SETFA; 250 g/ha a.s., Use Example 19): 85% | Herbicidal action in % after 20 days against SETFA (SETFA; 250 g/ha a.s., Use Example 22): 85% | Herbicidal action in % after 20 days against APESV (APESV; 63 g/ha a.s., Use Example 21): 80% | Herbicidal action in % after 20 days against APESV (APESV; 125 g/ha a.s., Use Example 20): 90% | Herbicidal action in % after 20 days against APESV (APESV; 125 g/ha a.s., Use Example 21): 90% | Herbicidal action in % after 20 days against APESV (APESV; 250 g/ha a.s., Use Example 20): 95% | Herbicidal action in % after 20 days against LOLMU (LOLMU; 63 g/ha a.s.): 30% | Herbicidal action in % after 20 days against LOLMU (LOLMU; 125 g/ha a.s.): 50% | Herbicidal action in % after 20 days against PHACA (PHACA; 125 g/ha a.s.): 65% | Herbicidal action in % after 20 days against PHACA (PHACA; 250 g/ha a.s.): 90% | Herbicidal action in % after 20 days against ECHCG (ECHCG; 125 g/ha a.s., Use Example 22): 20% | Herbicidal action in % after 20 days against ECHCG (ECHCG; 125 g/ha a.s., Use Example 23): 20% | Herbicidal action in % after 20 days against ECHCG (ECHCG; 250 g/ha a.s., Use Example 22): 70% | Herbicidal action in % after 20 days against ECHCG (ECHCG; 250 g/ha a.s., Use Example 23): 70%

CCCN(CCC)C(=O)SCc1ccccc1 [Prosulfocarb, reference compound]
Herbicidal action in % after 20 days against ALOMY (ALOMY; 1000 g/ha a.s., Use Example 2): 70% | Herbicidal action in % after 20 days against MATIN (MATIN): 30% | Herbicidal action in % after 20 days against ECHCG (ECHCG; 1000 g/ha a.s., Use Example 2): 40% | Herbicidal action in % after 20 days against STEME (STEME): 80%
